Source: patent publication US7868013B2, “Cycloalkyl substituted pyrimidinediamine compounds and their uses” (Rigel Pharmaceuticals, Inc., priority 2004, dated 2011)
Where two headings read alike, the source gives them in different places.

Experiments:
A549 (lung carcinoma) = assay: In vitro antiproliferation assay, A549 cells (TABLE 1 6 point assay; TABLE 2); assay type: cell-based
Protocol: (§1) Certain compounds were tested against other cell types for their ability to inhibit proliferation in standard antiproliferation assays.

[1] = system: H1299 (non-small cell lung carcinoma); assay: In vitro antiproliferation assay, H1299 cells (TABLE 1 6 point assay; TABLE 2); assay type: cell-based; details: Homo sapiens
Protocol: as §1

[2] = Homo sapiens, A549, A549 cells, 6 point assay, read-out: A549, 6pt (IC50, inhibition of proliferation)
[3] = NCI-H1299, H1299 cells, 6 point assay, read-out: H1299, 6pt (IC50, inhibition of proliferation)
[4] = Homo sapiens, A549, 6 point assay, A549 cells, read-out: IC50, A549 cells
[5] = NCI-H1299, 6 point assay, H1299 cells, read-out: IC50, H1299 cells

| IC50 (A549 (lung carcinoma); [2]) [nM] | IC50 [1, 3] [nM] | IC50 (A549 (lung carcinoma); [4]) [nM] | IC50 [1, 5] [nM] | IC50 (A549 (lung carcinoma); 6 point assay, A549 cells, read-out: IC50, A549 cells) [nM] | Compound |
| --- | --- | --- | --- | --- | --- |
| ≤ 100 | ≤ 100 |  |  |  | CCNC(=O)C1C2C=CC(C2)C1Nc1nc(Nc2ccc3c(c2)CCN3S(C)(=O)=O)ncc1F (racemic) [compound 182, Racemic-(2-exo,3-exo)-N4-[3-ethylaminocarbonylbicyclo[2.2.1]hept-5-en-2-yl)-5-fluoro-N2-[1-methylsulfonyl-2,3-dihydro-indol-5-yl]-2,4-pyrimidinediamine] |
|  |  | 100 to 1000 | 1000 to 10000 |  | CCOC(=O)N1CCN(c2cccc(Nc3ncc(F)c(NC4CCCC4C(N)=O)n3)c2)CC1 (centres unmarked) [compound 201, N4-(2-Carboxamidocyclopentyl)-N2-[3-(4-ethoxycarbonylpiperazino)phenyl]-5-fluoro-2,4-pyrimidinediamine] |
| ≤ 100 | ≤ 100 |  |  |  | CNC(=O)C1C2C=CC(C2)C1Nc1nc(Nc2ccc(N3CCN(C)CC3)c(C)c2)ncc1F (racemic) [compound 166, Racemic-(2-exo,3-exo)-N4-[3-(N-methyl)aminocarbonylbicyclo[2.2.1]hept-5-en-2-yl)-5-fluoro-N2-[3-methyl-4-(4-methylpiperazin-1-yl)phenyl]-2,4-pyrimidinediamine] |
|  |  | 100 to 1000 | 100 to 1000 |  | CN1CCN(c2ccc(Nc3ncc(F)c(NC4CCCC4C(N)=O)n3)cc2)CC1 (centres unmarked) [compound 194, N4-(2-Carboxamidocyclopentyl)-5-fluoro-N2-[4-(4-methylpiperazino)phenyl]-2,4-pyrimidinediamine] |
| 1000 to 10000 | 1000 to 10000 |  |  |  | CN1CCN(C(=O)c2cc3cc(Nc4ncc(F)c(N[C@H]5CCC[C@H]5C(N)=O)n4)ccc3o2)CC1 (racemic) [compound 130, Racemic-cis-N4-(2-aminocarbonylcyclopent-1-yl)-5-fluoro-N2-[2-(4-methylpiperazin-1-ylcarbonyl)benzofuran-5-yl]-2,4-pyrimidinediamine] |
|  |  | ≤ 100 | ≤ 100 |  | CN1CCC(c2cccc(Nc3ncc(F)c(NC4C5C=CC(C5)C4C(N)=O)n3)c2)CC1 (racemic) [compound 268, Racemic-(2-exo,3-exo)-N4-(3-aminocarbonylbicyclo[2.2.1]hept-5-en-2-yl)-5-fluoro-N2-[3-(1-methylpiperidin-4-yl)phenyl]-2,4-pyrimidinediamine] |
| ≤ 100 | ≤ 100 |  |  |  | Cc1ccc(Nc2ncc(F)c(NC3C4C=CC(C4)C3C(N)=O)n2)cc1OCCN1CCOCC1 (racemic) [compound 104, Racemic-(2-exo, 3-exo)-N4-(3-aminocarbonylbicyclo[2.2.1]hept-5-en-2-yl)-5-fluoro-N2-[4-methyl-3-(N-morpholinyl)-2-ethyleneoxyphenyl]-2,4-pyrimidinediamine] |
| ≤ 100 | ≤ 100 |  |  |  | CCNC(=O)C1C2C=CC(C2)C1Nc1nc(Nc2ccc(N3CCN(C)CC3)c(C)c2)ncc1F (racemic) [compound 167, Racemic-(2-exo,3-exo)-N4-[3-(N-ethyl)aminocarbonylbicyclo[2.2.1]hept-5-en-2-yl]-5-fluoro-N2-[3-methyl-4-(4-methylpiperazin-1-yl)phenyl]-2,4-pyrimidinediamine] |
|  |  | 100 to 1000 | 100 to 1000 |  | CN1CCN(c2ccc(Nc3ncc(F)c(NC4CCCC4C(N)=O)n3)cc2Cl)CC1 (centres unmarked) [compound 202, N4-(2-Carboxamidocyclopentyl)-N2-[3-chloro-4-(4-methylpiperazino)phenyl]-5-fluoro-2,4-pyrimidinediamine] |
|  |  | ≤ 100 | 100 to 1000 |  | NC(=O)[C@@H]1[C@H](Nc2nc(Nc3ccc(C4CCNCC4)cc3)ncc2F)[C@H]2C=C[C@@H]1C2 [compound 273, (1R,2R,3S,4S)-N4-(3-Aminocarbonylbicyclo[2.2.1]hept-5-en-2-yl)-5-fluoro-N2-[4-(piperidin-4-yl)phenyl]-2,4-pyrimidinediamine] |
| ≤ 100 | ≤ 100 |  |  |  | Cc1cc(Nc2ncc(F)c(N[C@H]3[C@@H](C(=O)NC4CCC4)[C@@H]4C=C[C@H]3C4)n2)ccc1N1CCN(C)CC1 [compound 192, (1R,2R,3S,4S)-N4-[3-(N-Cyclobutyl)aminocarbonylbicyclo[2.2.1]hept-5-en-2-yl]-5-fluoro-N2-[3-methyl-4-(4-methylpiperazin-1-yl)phenyl]-2,4-pyrimidinediamine] |
|  |  | ≤ 100 | ≤ 100 |  | Cc1cc(Nc2ncc(F)c(N[C@@H]3[C@H]4CC[C@H](C4)[C@@H]3C(N)=O)n2)ccc1N1CCN(C)CC1 (racemic) [compound 240, Racemic-(2-exo,3-exo)-N4-(3-aminocarbonylbicyclo[2.2.1]hept-2-yl)-5-fluoro-N2-[3-methyl-4-(4-methylpiperazin-1-yl)phenyl]-2,4-pyrimidinediamine] |
|  |  |  | 1000 to 10000 | 100 to 1000 | Cc1cc(Nc2ncc(F)c(N[C@H]3CCCC[C@H]3C(N)=O)n2)ccc1N1CCN(C)CC1 (racemic) [compound 223, Racemic-cis-N4-(2-aminocarbonylcyclohex-1-yl)-5-fluoro-N2-[3-methyl-4-(4-methylpiperazin-1-yl)phenyl]-2,4-pyrimidinediamine] |
|  |  | 100 to 1000 | 1000 to 10000 |  | CN1CCN(c2ccc(Nc3ncc(F)c(NC4CCCC4C(N)=O)n3)cc2C(F)(F)F)CC1 (stereo not drawn) [compound 204, (cis)-N4-(2-Carboxamidocyclopent-1-yl)-5-fluoro-N2-[4-(4-methylpiperazino)-3-trifluoromethylphenyl]-1,4-pyrimidinediamine] |
|  |  | ≤ 100 | ≤ 100 |  | NC(=O)C1C2C=CC(C2)C1Nc1nc(Nc2cccc(C3CCNCC3)c2)ncc1F (racemic) [compound 267, Racemic-(2-exo,3-exo)-N4-(3-aminocarbonylbicyclo[2.2.1]hept-5-en-2-yl)-5-fluoro-N2-[3-(piperidin-4-yl)phenyl]-2,4-pyrimidinediamine] |
|  |  | > 10000 | > 10000 |  | Cc1cc(Nc2ncc(F)c(N[C@@H]3CC=CC[C@H]3C(N)=O)n2)ccc1N1CCN(C)CC1 (racemic) [compound 229, Racemic-N4-(2-aminocarbonylcyclohex-4-ene-1-yl)-5-fluoro-N2-[3-methyl-4-(4-methylpiperazin-1-yl)phenyl]-2,4-pyrimidinediamine] |
| ≤ 100 | ≤ 100 |  |  |  | CN(C)CCN1CCc2cc(Nc3ncc(F)c(N[C@H]4[C@@H](C(N)=O)[C@@H]5C=C[C@H]4C5)n3)ccc21 [compound 186, (1R,2R,3S,4S)-N4-[3-Aminocarbonylbicyclo[2.2.1]hept-5-en-2-yl]-N2-[1-(2-dimethylaminoethyl)-2,3-dihydroindol-5-yl]-5-fluoro-2,4-pyrimidinediamine] |
|  |  | ≤ 100 | ≤ 100 |  | COCc1cc(Nc2ncc(F)c(NC3C4C=CC(C4)C3C(N)=O)n2)ccc1N1CCN(C)CC1 (racemic) [compound 235, Racemic-(2-exo,3-exo)-N4-(3-aminocarbonylbicyclo[2.2.1]hept-5-en-2-yl)-5-fluoro-N2-[3-methoxymethyl-4-(4-methylpiperazin-1-yl)phenyl)-2,4-pyrimidinediamine] |
|  |  | ≤ 100 | ≤ 100 |  | Cc1cc(Nc2ncc(F)c(NC3C4CCC(C4)C3C(=O)NC3CC3)n2)ccc1N1CCN(C)CC1 (racemic) [compound 252, Racemic-(2-exo,3-exo)-N4-(3-N-cyclopropylaminocarbonylbicyclo[2.2.1]hept-2-yl)-5-fluoro-N2-[3-methyl-4-(4-methylpiperazin-1-yl)phenyl]-2,4-pyrimidinediamine] |
|  |  | 100 to 1000 | 100 to 1000 |  | CC(=O)N1CCN(c2ccc(Nc3ncc(F)c(NC4CCCC4C(N)=O)n3)cc2)CC1 (centres unmarked) [compound 196, N2-[4-(4-Acetylpiperazino)phenyl]-N4-(2-carboxamidocyclopentyl)-5-fluoro-2,4-pyrimidinediamine] |
| ≤ 100 | ≤ 100 |  |  |  | Cc1cc(Nc2ncc(F)c(N[C@H]3[C@@H](C(N)=O)[C@@H]4C=C[C@H]3C4)n2)ccc1N1CCN(CCO)CC1 [compound 116, (1R,2R,3S,4S)-N4-(3-Aminocarbonylbicyclo[2.2.1]hept-5-en-2-yl)-5-fluoro-N2-{4-[4-(2-hydroxyethyl)piperazin-1-yl]-3-methylphenyl}-2,4-pyrimidinediamine] |
| 100 to 1000 | 100 to 1000 |  |  |  | CN1CCN(CCn2ccc3cc(Nc4ncc(F)c(NC5C6C=CC(C6)C5C(N)=O)n4)ccc32)CC1 (racemic) [compound 134, Racemic-(2-exo,3-exo)-N4-(3-aminocarbonylbicyclo[2.2.1]hept-5-en-2-yl)-5-fluoro-N2-{1-[2-(4-methylpiperazin-1-yl)ethyl]indol-5-yl}-2,4-pyrimidinediamine] |
|  |  | ≤ 100 | ≤ 100 |  | CN1CCN(c2ccc(Nc3ncc(F)c(NC4C5C=CC(C5)C4C(N)=O)n3)cc2)CC1 (racemic) [compound 230, Racemic-(2-exo,3-exo)-N4-(3-aminocarbonylbicyclo[2.2.1]hept-5-en-2-yl)-5-fluoro-N2-[4-(4-methylpiperazin-1-yl)phenyl]-2,4-pyrimidinediamine] |
| 1000 to 10000 | 1000 to 10000 |  |  |  | CN(C)CCN1CCc2cc(Nc3ncc(F)c(N[C@@H]4[C@H](C(N)=O)[C@H]5C=C[C@@H]4C5)n3)ccc21 [compound 187, (1S,2S,3R,4R)-N4-[3-Aminocarbonylbicyclo[2.2.1]hept-5-en-2-yl]-N2-[1-(2-dimethylaminoethyl)-2,3-dihydroindol-5-yl]-5-fluoro-2,4-pyrimidinediamine] |
| ≤ 100 | ≤ 100 |  |  |  | CNC(=O)C1C2C=CC(C2)C1Nc1nc(Nc2ccc3c(c2)CCN3S(C)(=O)=O)ncc1F (racemic) [compound 181, Racemic-(2-exo,3-exo)-5-fluoro-N4-[3-methylaminocarbonylbicyclo[2.2.1]hept-5-en-2-yl)-N2-[1-methylsulfonyl-2,3-dihydroindol-5-yl]-2,4-pyrimidinediamine] |
